pIC50, pKi: −log10 of the molar value.
biological target: T1, Estrogen receptor (Homo sapiens, UniProt P03372); details: sf9; also: in other assays of this panel Not Active means under 50% inhibition at 10 µM
T1 sequence (P03372 whole entry): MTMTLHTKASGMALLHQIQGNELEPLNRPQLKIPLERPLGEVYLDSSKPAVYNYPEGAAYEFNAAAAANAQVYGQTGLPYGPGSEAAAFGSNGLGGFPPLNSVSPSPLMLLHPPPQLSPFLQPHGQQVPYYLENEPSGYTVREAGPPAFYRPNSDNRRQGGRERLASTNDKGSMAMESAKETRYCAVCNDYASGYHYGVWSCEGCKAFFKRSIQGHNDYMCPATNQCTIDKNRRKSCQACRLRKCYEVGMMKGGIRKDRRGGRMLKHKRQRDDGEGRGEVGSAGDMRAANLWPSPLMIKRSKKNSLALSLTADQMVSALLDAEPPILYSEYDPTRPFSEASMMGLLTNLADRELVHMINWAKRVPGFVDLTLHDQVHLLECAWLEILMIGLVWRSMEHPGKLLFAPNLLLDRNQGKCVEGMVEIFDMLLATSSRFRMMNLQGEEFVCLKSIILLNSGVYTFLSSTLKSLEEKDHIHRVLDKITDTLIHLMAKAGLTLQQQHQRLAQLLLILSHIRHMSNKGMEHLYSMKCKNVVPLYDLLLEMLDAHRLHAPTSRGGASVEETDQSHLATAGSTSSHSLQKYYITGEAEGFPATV

Structure (SMILES)	IC50
O=c1[nH]c(=O)n([C@H]2C[C@H](O)[C@@H](CO)O2)cc1F [FLOXURIDINE]	Not Active
COC(=O)Nc1nc2cc(C(=O)c3ccc(F)cc3)ccc2[nH]1 [FLUBENDAZOLE]	Not Active
CC(=O)OCC(=O)[C@@]1(O)CC[C@H]2[C@@H]3CCC4=CC(=O)CC[C@]4(C)[C@@]3(F)[C@@H](O)C[C@@]21C [FLUDROCORTISONE ACETATE]	Not Active
CCOC(=O)c1ncn2c1CN(C)C(=O)c1cc(F)ccc1-2 [FLUMAZENIL]	Not Active
Cc1ccc(C)c(OCCCC(C)(C)C(=O)O)c1 [GEMFIBROZIL]	Not Active
CCC1=C(C)CN(C(=O)NCCc2ccc(S(=O)(=O)NC(=O)N[C@H]3CC[C@H](C)CC3)cc2)C1=O [GLIMEPIRIDE]	Not Active
Nc1cc(-c2ccncc2)c[nH]c1=O [INAMRINONE]	Not Active
CCCCC1=NC2(CCCC2)C(=O)N1Cc1ccc(-c2ccccc2-c2nnn[nH]2)cc1 [IRBESARTAN]	Not Active
CN1CCC(=C2c3ccccc3CC(=O)c3sccc32)CC1 [KETOTIFEN]	Not Active
CCn1cc(C(=O)O)c(=O)c2cc(F)c(N3CCNC(C)C3)c(F)c21 (stereo unspecified) [LOMEFLOXACIN]	Not Active
CN1CCCC(CN2c3ccccc3Sc3ccccc32)C1 (stereo unspecified) [MEPAZINE]	Not Active
Cc1cccc(C)c1NC(=O)C1CCCCN1C (stereo unspecified) [MEPIVACAINE]	Not Active
CC(C)(C)NCC(O)COc1cccc2c1CC(O)C(O)C2 (stereo unspecified) [NADOLOL]	Not Active
C[C@]12CC[C@H]3[C@@H](CCC4=CC(=O)CC[C@@H]43)[C@@H]1CC[C@@H]2O [NANDROLONE]	Not Active
CN(C)C(=O)Oc1cccc([N+](C)(C)C)c1.[Br-] [NEOSTIGMINE BROMIDE]	Not Active
NC(=O)c1cccnc1 [NIACINAMIDE]	Not Active
CN1C(=O)CN=C(c2ccccc2)c2cc([N+](=O)[O-])ccc21 [NIMETAZEPAM]	Not Active

biological target: T2, Alpha-1A adrenergic receptor (Rattus norvegicus, UniProt P43140); test: DRUGMATRIX: Alpha-1A adrenergic receptor radioligand binding (ligand: prazosin); assay type: cell membranes, Wistar, Submaxillary gland, Membrane; details: Not Active = under 50% inhibition at 10 µM
T2 sequence (P43140 whole entry): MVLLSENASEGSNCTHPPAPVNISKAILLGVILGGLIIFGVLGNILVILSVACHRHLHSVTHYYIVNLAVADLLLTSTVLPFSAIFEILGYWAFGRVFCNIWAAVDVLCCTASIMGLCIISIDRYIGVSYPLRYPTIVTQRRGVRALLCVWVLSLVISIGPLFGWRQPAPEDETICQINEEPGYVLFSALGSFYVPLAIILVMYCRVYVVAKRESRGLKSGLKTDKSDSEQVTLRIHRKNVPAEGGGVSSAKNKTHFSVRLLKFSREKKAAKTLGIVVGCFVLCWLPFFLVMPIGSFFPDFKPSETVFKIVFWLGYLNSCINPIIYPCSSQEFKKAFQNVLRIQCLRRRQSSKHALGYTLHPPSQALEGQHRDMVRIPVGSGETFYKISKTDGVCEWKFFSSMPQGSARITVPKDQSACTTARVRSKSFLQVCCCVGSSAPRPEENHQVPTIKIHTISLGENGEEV

Structure (SMILES)	IC50
O=c1[nH]c(=O)n([C@H]2C[C@H](O)[C@@H](CO)O2)cc1F [FLOXURIDINE]	Not Active
COC(=O)Nc1nc2cc(C(=O)c3ccc(F)cc3)ccc2[nH]1 [FLUBENDAZOLE]	Not Active
CC(=O)OCC(=O)[C@@]1(O)CC[C@H]2[C@@H]3CCC4=CC(=O)CC[C@]4(C)[C@@]3(F)[C@@H](O)C[C@@]21C [FLUDROCORTISONE ACETATE]	Not Active
CCOC(=O)c1ncn2c1CN(C)C(=O)c1cc(F)ccc1-2 [FLUMAZENIL]	Not Active
Cc1ccc(C)c(OCCCC(C)(C)C(=O)O)c1 [GEMFIBROZIL]	Not Active
CCC1=C(C)CN(C(=O)NCCc2ccc(S(=O)(=O)NC(=O)N[C@H]3CC[C@H](C)CC3)cc2)C1=O [GLIMEPIRIDE]	Not Active
Nc1cc(-c2ccncc2)c[nH]c1=O [INAMRINONE]	Not Active
CCCCC1=NC2(CCCC2)C(=O)N1Cc1ccc(-c2ccccc2-c2nnn[nH]2)cc1 [IRBESARTAN]	Not Active
CN1CCC(=C2c3ccccc3CC(=O)c3sccc32)CC1 [KETOTIFEN]	Not Active
CCn1cc(C(=O)O)c(=O)c2cc(F)c(N3CCNC(C)C3)c(F)c21 (stereo unspecified) [LOMEFLOXACIN]	Not Active
Cc1cccc(C)c1NC(=O)C1CCCCN1C (stereo unspecified) [MEPIVACAINE]	Not Active
CC(C)(C)NCC(O)COc1cccc2c1CC(O)C(O)C2 (stereo unspecified) [NADOLOL]	Not Active
C[C@]12CC[C@H]3[C@@H](CCC4=CC(=O)CC[C@@H]43)[C@@H]1CC[C@@H]2O [NANDROLONE]	Not Active
CN(C)C(=O)Oc1cccc([N+](C)(C)C)c1.[Br-] [NEOSTIGMINE BROMIDE]	Not Active
NC(=O)c1cccnc1 [NIACINAMIDE]	Not Active
CN1C(=O)CN=C(c2ccccc2)c2cc([N+](=O)[O-])ccc21 [NIMETAZEPAM]	Not Active

same assay, conditions: Not Active = under 50% inhibition at 10 µM; read-out: IC50

Structure (SMILES)	pIC50
CN1CCCC(CN2c3ccccc3Sc3ccccc32)C1 (stereo unspecified) [MEPAZINE]	6.84

same assay, conditions: Not Active = under 50% inhibition at 10 µM; read-out: Ki

Structure (SMILES)	pKi
CN1CCCC(CN2c3ccccc3Sc3ccccc32)C1 (stereo unspecified) [MEPAZINE]	7.24

biological target: T3, Cytochrome P450 2A6 (Homo sapiens, UniProt P11509); details: bti-tn-5b1-4; also: in other assays of this panel Not Active means under 50% inhibition at 10 µM
T3 sequence (P11509 whole entry): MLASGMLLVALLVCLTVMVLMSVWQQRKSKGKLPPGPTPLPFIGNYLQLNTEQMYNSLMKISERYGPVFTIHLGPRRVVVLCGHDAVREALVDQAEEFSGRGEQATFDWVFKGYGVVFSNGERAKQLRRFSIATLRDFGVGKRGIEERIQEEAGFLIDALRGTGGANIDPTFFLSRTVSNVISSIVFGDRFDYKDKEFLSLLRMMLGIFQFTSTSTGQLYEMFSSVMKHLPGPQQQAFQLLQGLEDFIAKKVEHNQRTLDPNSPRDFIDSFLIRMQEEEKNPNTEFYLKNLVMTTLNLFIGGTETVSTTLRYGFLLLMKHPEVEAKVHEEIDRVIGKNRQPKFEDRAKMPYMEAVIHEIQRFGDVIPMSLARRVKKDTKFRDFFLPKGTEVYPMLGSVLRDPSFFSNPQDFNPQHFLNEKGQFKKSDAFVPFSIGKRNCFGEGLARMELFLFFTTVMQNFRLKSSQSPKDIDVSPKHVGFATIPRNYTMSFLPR

Structure (SMILES)	IC50	Ki
O=c1[nH]c(=O)n([C@H]2C[C@H](O)[C@@H](CO)O2)cc1F [FLOXURIDINE]	Not Active	Not Active
COC(=O)Nc1nc2cc(C(=O)c3ccc(F)cc3)ccc2[nH]1 [FLUBENDAZOLE]	Not Active	Not Active
CC(=O)OCC(=O)[C@@]1(O)CC[C@H]2[C@@H]3CCC4=CC(=O)CC[C@]4(C)[C@@]3(F)[C@@H](O)C[C@@]21C [FLUDROCORTISONE ACETATE]	Not Active	Not Active
CCOC(=O)c1ncn2c1CN(C)C(=O)c1cc(F)ccc1-2 [FLUMAZENIL]	Not Active	Not Active
Cc1ccc(C)c(OCCCC(C)(C)C(=O)O)c1 [GEMFIBROZIL]	Not Active	Not Active
CCC1=C(C)CN(C(=O)NCCc2ccc(S(=O)(=O)NC(=O)N[C@H]3CC[C@H](C)CC3)cc2)C1=O [GLIMEPIRIDE]	Not Active	Not Active
Nc1cc(-c2ccncc2)c[nH]c1=O [INAMRINONE]	Not Active	Not Active
CCCCC1=NC2(CCCC2)C(=O)N1Cc1ccc(-c2ccccc2-c2nnn[nH]2)cc1 [IRBESARTAN]	Not Active	Not Active
CN1CCC(=C2c3ccccc3CC(=O)c3sccc32)CC1 [KETOTIFEN]	Not Active	Not Active
CCn1cc(C(=O)O)c(=O)c2cc(F)c(N3CCNC(C)C3)c(F)c21 (stereo unspecified) [LOMEFLOXACIN]	Not Active	Not Active
CN1CCCC(CN2c3ccccc3Sc3ccccc32)C1 (stereo unspecified) [MEPAZINE]	Not Active	Not Active
Cc1cccc(C)c1NC(=O)C1CCCCN1C (stereo unspecified) [MEPIVACAINE]	Not Active	Not Active
CC(C)(C)NCC(O)COc1cccc2c1CC(O)C(O)C2 (stereo unspecified) [NADOLOL]	Not Active	Not Active
C[C@]12CC[C@H]3[C@@H](CCC4=CC(=O)CC[C@@H]43)[C@@H]1CC[C@@H]2O [NANDROLONE]	Not Active	Not Active
CN(C)C(=O)Oc1cccc([N+](C)(C)C)c1.[Br-] [NEOSTIGMINE BROMIDE]	Not Active	Not Active
NC(=O)c1cccnc1 [NIACINAMIDE]	Not Active	Not Active
CN1C(=O)CN=C(c2ccccc2)c2cc([N+](=O)[O-])ccc21 [NIMETAZEPAM]	Not Active	Not Active

biological target: T4, Leukotriene C4 synthase (Cavia porcellus, UniProt A6XA80); assay type: tissue-based, Lung; details: not given;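 also: enzyme inhibition assay of leukotriene C4 synthase, using LTA4 as the substrate; in other assays of this panel Not Active means under 50% inhibition at 10 µM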
T4 sequence (A6XA80 whole entry): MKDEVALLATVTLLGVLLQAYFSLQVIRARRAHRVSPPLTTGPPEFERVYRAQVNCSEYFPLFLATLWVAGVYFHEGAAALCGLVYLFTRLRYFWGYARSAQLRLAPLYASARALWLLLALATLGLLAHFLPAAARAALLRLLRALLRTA

Structure (SMILES)	IC50
O=c1[nH]c(=O)n([C@H]2C[C@H](O)[C@@H](CO)O2)cc1F [FLOXURIDINE]	Not Active
COC(=O)Nc1nc2cc(C(=O)c3ccc(F)cc3)ccc2[nH]1 [FLUBENDAZOLE]	Not Active
CC(=O)OCC(=O)[C@@]1(O)CC[C@H]2[C@@H]3CCC4=CC(=O)CC[C@]4(C)[C@@]3(F)[C@@H](O)C[C@@]21C [FLUDROCORTISONE ACETATE]	Not Active
CCOC(=O)c1ncn2c1CN(C)C(=O)c1cc(F)ccc1-2 [FLUMAZENIL]	Not Active
Cc1ccc(C)c(OCCCC(C)(C)C(=O)O)c1 [GEMFIBROZIL]	Not Active
CCC1=C(C)CN(C(=O)NCCc2ccc(S(=O)(=O)NC(=O)N[C@H]3CC[C@H](C)CC3)cc2)C1=O [GLIMEPIRIDE]	Not Active
Nc1cc(-c2ccncc2)c[nH]c1=O [INAMRINONE]	Not Active
CCCCC1=NC2(CCCC2)C(=O)N1Cc1ccc(-c2ccccc2-c2nnn[nH]2)cc1 [IRBESARTAN]	Not Active
CN1CCC(=C2c3ccccc3CC(=O)c3sccc32)CC1 [KETOTIFEN]	Not Active
CCn1cc(C(=O)O)c(=O)c2cc(F)c(N3CCNC(C)C3)c(F)c21 (stereo unspecified) [LOMEFLOXACIN]	Not Active
CN1CCCC(CN2c3ccccc3Sc3ccccc32)C1 (stereo unspecified) [MEPAZINE]	Not Active
Cc1cccc(C)c1NC(=O)C1CCCCN1C (stereo unspecified) [MEPIVACAINE]	Not Active
CC(C)(C)NCC(O)COc1cccc2c1CC(O)C(O)C2 (stereo unspecified) [NADOLOL]	Not Active
C[C@]12CC[C@H]3[C@@H](CCC4=CC(=O)CC[C@@H]43)[C@@H]1CC[C@@H]2O [NANDROLONE]	Not Active
CN(C)C(=O)Oc1cccc([N+](C)(C)C)c1.[Br-] [NEOSTIGMINE BROMIDE]	Not Active
NC(=O)c1cccnc1 [NIACINAMIDE]	Not Active
CN1C(=O)CN=C(c2ccccc2)c2cc([N+](=O)[O-])ccc21 [NIMETAZEPAM]	Not Active
